Test results reported in patent US4808603A, “3,5-diacyl-2,6-dialkyl-4-aryl-1,4-dihydropyridines, their use, and pharmaceutical compositions thereof” (Ciba-Geigy Corporation, priority 1985, dated 1989).

Tests used:
[1] = test system: isolated perfused mesenteric vessels of rats; test: inhibition of noradrenalin-induced vasoconstriction in isolated perfused mesenteric vessels of rats; assay type: cell-based; conditions: Rattus norvegicus, in vitro
Source text: (§1) The compounds of the formula I and salts thereof have valuable pharmacological properties, especially in the cardiovascular field. […] 177, 21-30, (1965)] by way of the inhibition of potassium- and noradrenalininduced vasoconstriction, for example using 2,6-dimethyl-4-(3-nitrophenyl)-1,4-dihydropyridine-3,5-dicarboxylic acid 3-methyl ester 5-[2-[N-(4-(4-fluorophenyl)-4-oxo-n-butyl)-N-methylamino]ethyl ester] at a concentration of approx. 10^-8 mol/liter (IC50) for the inhibition of potassium-induced vasoconstriction, and at a concentration of approx. 3×10^-10 mol/liter (IC50) for the inhibition of noradrenalin-induced vasoconstriction. […] Pharmacol. 21, 301-304 (1982)], for example using 2,6-dimethyl-4-(3-nitrophenyl)-1,4-dihydropyridine-3,5-dicarboxylic acid 3-methyl ester 5-[2-[N-(4-(4-fluorophenyl)-4-oxo-n-butyl)-N-methylamino]ethyl ester] at a concentration of approx. 10^-8 mol/liter (IC50).

[2] = molecular target: T1, serotonin2 -receptors (Rattus norvegicus, UniProt P14842); test: displacement of 3H-ketanserin from its bonding sites in membranes of rats' brains; assay type: binding; conditions: read-out: IC50, displacement of 3H-ketanserin from serotonin2-receptor bonding sites
T1 construct: membranes of rats' brains; from tissue; host or cells: rat brain membranes
Source text: as §1

[3] = test system: isolated perfused mesenteric vessels of rats; test: inhibition of potassium-induced vasoconstriction in isolated perfused mesenteric vessels of rats; assay type: cell-based; conditions: Rattus norvegicus, in vitro
Source text: as §1

[4] = test system: renally hypertonic rats; test: reduction in blood pressure in renally hypertonic rats; assay type: in vivo; conditions: 2 hours after p.o. administration of 15 mg/kg
Description: For example, 2 hours after p.o. administration of 15 mg/kg of 2,6-dimethyl-4-(3-nitrophenyl)-1,4-dihydropyridine-3,5dicarboxylic acid 3-methyl ester 5-[2-[N-(4-(4-fluorophenyl)-4-oxo-n-butyl)-N-methylamino]ethyl ester] to renally hypertonic rats, a reduction in blood pressure of approx. 45 mm Hg may be observed.

T1 sequence (P14842 whole entry): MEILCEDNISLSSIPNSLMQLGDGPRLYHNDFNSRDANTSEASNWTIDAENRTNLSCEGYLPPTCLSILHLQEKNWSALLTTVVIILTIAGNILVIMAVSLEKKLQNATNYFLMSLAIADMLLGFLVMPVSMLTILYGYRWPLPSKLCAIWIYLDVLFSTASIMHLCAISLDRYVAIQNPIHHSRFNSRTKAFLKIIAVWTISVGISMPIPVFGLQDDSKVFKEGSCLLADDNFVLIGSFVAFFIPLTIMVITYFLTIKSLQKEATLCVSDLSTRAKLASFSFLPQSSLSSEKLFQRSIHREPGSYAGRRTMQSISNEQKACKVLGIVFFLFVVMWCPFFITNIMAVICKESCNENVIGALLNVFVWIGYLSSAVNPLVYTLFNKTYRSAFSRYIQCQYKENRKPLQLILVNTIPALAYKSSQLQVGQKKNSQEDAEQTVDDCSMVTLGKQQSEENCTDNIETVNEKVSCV

Molecule `COC(=O)C1=C(C)NC(C)=C(C(=O)OCCN(C)CCCC(=O)c2ccc(F)cc2)C1c1cccc([N+](=O)[O-])c1` (stereo not shown) [2,6-dimethyl-4-(3-nitrophenyl)-1,4-dihydropyridine-3,5-dicarboxylic acid 3-methyl ester 5-[2-[N-(4-(4-fluorophenyl)-4-oxo-n-butyl)-N-methylamino]ethyl ester]] has an IC50 [1] of about 0.3 nM, an IC50 [2] of about 10 nM and an IC50 [3] of about 10 nM. For the same molecule, the “reduction in blood pressure” value [4] was “approx. 45 mm Hg”.
